{"source": "paper PMC10938783", "about": "“A novel pan-PI3K inhibitor KTC1101 synergizes with anti-PD-1 therapy by targeting tumor suppression and immune activation” (Molecular Cancer, 2024)", "tested_on": "B16 cells gene expression", "test": "RNA-Seq (DEGs, GSEA, heatmaps) of B16 cells", "conditions": "KTC1101 0.2μM, B16 cells, GSEA KEGG"}
{"smiles": "COc1cc(N)cc2c1nc(C(F)F)n2-c1nc(N2CCCOCC2)nc(N2CCOCC2)n1", "note": "[KTC1101, 2-(difluoromethyl)-4-methoxy-1-(4-morpholino-6-(1,4-oxazepan-4-yl)-1,3,5-triazin-2-yl)-1H-benzo[d]imidazol-6-amine]", "values": [{"measurement": "NES, mmu04970 Salivary secretion", "result": 1.144}, {"measurement": "NES, mmu04972 Pancreatic secretion", "result": 0.9417}, {"measurement": "NES, mmu05017 Spinocerebellar ataxia", "result": -1.093}, {"measurement": "NES, mmu05031 Amphetamine addiction", "result": 1.031}, {"measurement": "NES, mmu05034 Alcoholism", "result": 0.984}, {"measurement": "NES, mmu05100 Bacterial invasion of epithelial cells", "result": 0.6338}, {"measurement": "NES, mmu05132 Salmonella infection", "result": -1.08}, {"measurement": "NES, mmu05133 Pertussis", "result": 0.6182}, {"measurement": "NES, mmu05134 Legionellosis", "result": 1.026}, {"measurement": "NES, mmu05135 Yersinia infection", "result": 0.5197}, {"measurement": "NES, mmu05145 Toxoplasmosis", "result": 1.047}, {"measurement": "NES, mmu05160 Hepatitis C", "result": -0.848}, {"measurement": "NES, mmu05162 Measles", "result": 1.0518}, {"measurement": "NES, mmu05165 Human papillomavirus infection", "result": 0.8359}, {"measurement": "NES, mmu05170 Human immunodeficiency virus 1 infection", "result": 0.8557}, {"measurement": "NES, mmu05200 Pathways in cancer", "result": 1.059}, {"measurement": "NES, mmu05203 Viral carcinogenesis", "result": 0.855}, {"measurement": "NES, mmu05204 Chemical carcinogenesis - DNA adducts", "result": -1.166}, {"measurement": "NES, mmu05206 MicroRNAs in cancer", "result": 1.025}, {"measurement": "NES, mmu05207 Chemical carcinogenesis - receptor activation", "result": 0.9371}, {"measurement": "NES, mmu05210 Colorectal cancer", "result": 0.7382}, {"measurement": "NES, mmu05211 Renal cell carcinoma", "result": -0.9675}, {"measurement": "NES, mmu05212 Pancreatic cancer", "result": -0.9022}, {"measurement": "NES, mmu05213 Endometrial cancer", "result": -1.003}, {"measurement": "NES, mmu05214 Glioma", "result": 0.9787}, {"measurement": "NES, mmu05216 Thyroid cancer", "result": 0.6447}, {"measurement": "NES, mmu05218 Melanoma", "result": 1.185}, {"measurement": "NES, mmu05219 Bladder cancer", "result": 0.8356}, {"measurement": "NES, mmu05220 Chronic myeloid leukemia", "result": 0.9551}, {"measurement": "NES, mmu05223 Non-small cell lung cancer", "result": -0.8178}, {"measurement": "NES, mmu05231 Choline metabolism in cancer", "result": 1.119}, {"measurement": "NES, mmu05235 PD-L1 expression and PD-1 checkpoint pathway in cancer", "result": 0.9645}, {"measurement": "NES, mmu05412 Arrhythmogenic right ventricular cardiomyopathy", "result": 1.0322}, {"measurement": "NES, mmu05416 Viral myocarditis", "result": 0.9628}, {"measurement": "NES, mmu05417 Lipid and atherosclerosis", "result": 1.128}, {"measurement": "enrichmentScore, mmu00071 Fatty acid degradation", "result": 0.2512}, {"measurement": "enrichmentScore, mmu00310 Lysine degradation", "result": -0.1985}, {"measurement": "enrichmentScore, mmu00380 Tryptophan metabolism", "result": 0.4505}, {"measurement": "enrichmentScore, mmu00500 Starch and sucrose metabolism", "result": -0.3977}, {"measurement": "enrichmentScore, mmu00510 N-Glycan biosynthesis", "result": -0.1868}, {"measurement": "enrichmentScore, mmu00513 Various types of N-glycan biosynthesis", "result": 0.3555}, {"measurement": "enrichmentScore, mmu00514 Other types of O-glycan biosynthesis", "result": 0.426}, {"measurement": "enrichmentScore, mmu00562 Inositol phosphate metabolism", "result": -0.271}, {"measurement": "enrichmentScore, mmu00564 Glycerophospholipid metabolism", "result": -0.1904}, {"measurement": "enrichmentScore, mmu00600 Sphingolipid metabolism", "result": -0.2721}, {"measurement": "enrichmentScore, mmu00860 Porphyrin metabolism", "result": -0.354}, {"measurement": "enrichmentScore, mmu00980 Metabolism of xenobiotics by cytochrome P450", "result": -0.3932}, {"measurement": "enrichmentScore, mmu00982 Drug metabolism - cytochrome P450", "result": -0.394}, {"measurement": "enrichmentScore, mmu01250 Biosynthesis of nucleotide sugars", "result": -0.3381}, {"measurement": "enrichmentScore, mmu01522 Endocrine resistance", "result": 0.2781}, {"measurement": "enrichmentScore, mmu01523 Antifolate resistance", "result": -0.26}, {"measurement": "enrichmentScore, mmu02010 ABC transporters", "result": -0.2376}, {"measurement": "enrichmentScore, mmu03008 Ribosome biogenesis in eukaryotes", "result": 0.1194}, {"measurement": "enrichmentScore, mmu03015 mRNA surveillance pathway", "result": -0.1312}, {"measurement": "enrichmentScore, mmu03018 RNA degradation", "result": -0.2392}, {"measurement": "enrichmentScore, mmu03022 Basal transcription factors", "result": -0.1746}, {"measurement": "enrichmentScore, mmu03040 Spliceosome", "result": -0.1926}, {"measurement": "enrichmentScore, mmu03060 Protein export", "result": -0.3667}, {"measurement": "enrichmentScore, mmu03082 ATP-dependent chromatin remodeling", "result": 0.1455}, {"measurement": "enrichmentScore, mmu03083 Polycomb repressive complex", "result": 0.08375}, {"measurement": "enrichmentScore, mmu03250 Viral life cycle - HIV-1", "result": -0.1606}, {"measurement": "enrichmentScore, mmu03410 Base excision repair", "result": 0.1698}, {"measurement": "enrichmentScore, mmu03420 Nucleotide excision repair", "result": -0.1542}, {"measurement": "enrichmentScore, mmu03430 Mismatch repair", "result": -0.1664}, {"measurement": "enrichmentScore, mmu03460 Fanconi anemia pathway", "result": -0.2915}, {"measurement": "enrichmentScore, mmu04014 Ras signaling pathway", "result": -0.2302}, {"measurement": "enrichmentScore, mmu04068 FoxO signaling pathway", "result": 0.2292}, {"measurement": "enrichmentScore, mmu04070 Phosphatidylinositol signaling system", "result": -0.1821}, {"measurement": "enrichmentScore, mmu04071 Sphingolipid signaling pathway", "result": -0.1806}, {"measurement": "enrichmentScore, mmu04115 p53 signaling pathway", "result": 0.2436}, {"measurement": "enrichmentScore, mmu04120 Ubiquitin mediated proteolysis", "result": -0.1841}, {"measurement": "enrichmentScore, mmu04130 SNARE interactions in vesicular transport", "result": -0.1753}, {"measurement": "enrichmentScore, mmu04136 Autophagy - other", "result": 0.2123}, {"measurement": "enrichmentScore, mmu04137 Mitophagy - animal", "result": -0.2835}, {"measurement": "enrichmentScore, mmu04140 Autophagy - animal", "result": -0.2}, {"measurement": "enrichmentScore, mmu04144 Endocytosis", "result": 0.1533}, {"measurement": "enrichmentScore, mmu04146 Peroxisome", "result": 0.2695}, {"measurement": "enrichmentScore, mmu04148 Efferocytosis", "result": 0.2467}, {"measurement": "enrichmentScore, mmu04150 mTOR signaling pathway", "result": -0.2361}, {"measurement": "enrichmentScore, mmu04152 AMPK signaling pathway", "result": -0.2382}, {"measurement": "enrichmentScore, mmu04210 Apoptosis", "result": 0.1949}]}
